Source: ChEMBL document CHEMBL2417397, “Synthesis and biological properties of new N-Mannich bases derived from 3-methyl-3-phenyl- and 3,3-dimethyl-succinimides. Part V” (Eur J Med Chem, 2013)
Active and inactive are the calls of the source. The calls are words filed in the database; no cut-off is given here.

tested on: Mus musculus; experiment: Anticonvulsant activity in CF-1 albino mouse assessed as time of peak effect for protection against maximal electroshock-induced seizures at 30 to 300 mg/kg, ip; type: functional; conditions: dose mg/kg 30-300; route intraperitoneal

Q: With `CC1(c2ccccc2)CC(=O)N(CN2CCN(c3ccc(F)cc3)CC2)C1=O` (stereo unspecified) as the compound, how does the Time read?
A: 8 h

tested on: Rattus norvegicus; experiment: Anticonvulsant activity in Sprague-Dawley albino rat assessed as protection against maximal electroshock-induced seizures at 30 mg/kg, po after 0.25 hrs; type: functional; conditions: not given

Q: With `CC1(c2ccccc2)CC(=O)N(CN2CCN(c3ccc(F)cc3)CC2)C1=O` (stereo unspecified) as the compound, how does the Activity read?
A: 25%

tested on: Vibrio harveyi; experiment: Induction of mutagenecity in Vibrio harveyi BB7X; type: organism-based; conditions: in vivo

Q: For `CC1(c2ccccc2)CC(=O)N(CN2CCN(c3ccc(F)cc3)CC2)C1=O` (stereo unspecified), which Activity is on record?
A: Non-toxic

tested on: Rattus norvegicus; experiment: Anticonvulsant activity in Sprague-Dawley albino rat assessed as time of peak effect for protection against maximal electroshock-induced seizures at 30 mg/kg, po; type: functional; conditions: not given

Q: For `CC1(c2ccccc2)CC(=O)N(CN2CCN(c3ccc(F)cc3)CC2)C1=O` (stereo unspecified), which Time is on record?
A: 4 h

tested on: Vibrio harveyi; experiment: Antimutagenic activity in Vibrio harveyi BB7XM assessed as inhibition of 4-nitroquinoline-N-oxide-induced mutation; type: functional; conditions: not given

Q: With `CC1(c2ccccc2)CC(=O)N(CN2CCN(c3ccc(F)cc3)CC2)C1=O` (stereo unspecified) as the compound, how does the “inhibition (INH)” value read?
A: 49%

tested on: Mus musculus; experiment: Anticonvulsant activity in CF-1 albino mouse assessed as protection against 6 Hz psychomotor seizure at 100 mg/kg, ip after 0.5 hrs; type: functional; conditions: not given

Q: For `CC1(c2ccccc2)CC(=O)N(CN2CCN(c3ccc(F)cc3)CC2)C1=O` (stereo unspecified), which Activity is on record?
A: inactive

tested on: Mus musculus; experiment: Anticonvulsant activity in CF-1 albino mouse assessed as protection against 6 Hz psychomotor seizure at 100 mg/kg, ip after 2 hrs; type: functional; conditions: not given

Q: Which Activity does the source give for `CC1(c2ccccc2)CC(=O)N(CN2CCN(c3ccc(F)cc3)CC2)C1=O` (stereo unspecified) here?
A: Active

tested on: Rattus norvegicus; experiment: Neurotoxicity in Sprague-Dawley albino rat assessed as motor impairment at 30 mg/kg, po; type: toxicity, organism-based; set-up: dose 30 mg/kg, route oral; conditions: in vivo

Q: With `CC1(c2ccccc2)CC(=O)N(CN2CCN(c3ccc(F)cc3)CC2)C1=O` (stereo unspecified) as the compound, how does the Activity read?
A: Non-toxic

tested on: Mus musculus; experiment: Anticonvulsant activity in CF-1 albino mouse assessed as protection against 6 Hz psychomotor seizure at 100 mg/kg, ip after 4 hrs; type: functional; conditions: not given

Q: With `CC1(c2ccccc2)CC(=O)N(CN2CCN(c3ccc(F)cc3)CC2)C1=O` (stereo unspecified) as the compound, how does the Activity read?
A: Active

tested on: Mus musculus; experiment: Anticonvulsant activity in CF-1 albino mouse assessed as protection against 6 Hz psychomotor seizure at 100 mg/kg, ip after 1 hr; type: functional; conditions: route intraperitoneal

Q: With `CC1(c2ccccc2)CC(=O)N(CN2CCN(c3ccc(F)cc3)CC2)C1=O` (stereo unspecified) as the compound, how does the Activity read?
A: 25%

species: Rattus norvegicus; experiment: Protective index, ratio of TD50 for Sprague-Dawley albino rat by rotarod test to ED50 for Sprague-Dawley albino rat; type: functional; conditions: not given

Q: With `CC1(c2ccccc2)CC(=O)N(CN2CCN(c3ccc(F)cc3)CC2)C1=O` (stereo unspecified) as the compound, how does the “Ratio TD50/ED50” value read?
A: 8.43

tested on: Vibrio harveyi; experiment: Induction of mutagenecity in Vibrio harveyi BB7M; type: organism-based; conditions: in vivo

Q: With `CC1(c2ccccc2)CC(=O)N(CN2CCN(c3ccc(F)cc3)CC2)C1=O` (stereo unspecified) as the compound, how does the Activity read?
A: Non-toxic

tested on: Rattus norvegicus; experiment: Anticonvulsant activity in Sprague-Dawley albino rat assessed as protection against maximal electroshock-induced seizures at 30 mg/kg, po after 4 hrs; type: functional; conditions: not given

Q: With `CC1(c2ccccc2)CC(=O)N(CN2CCN(c3ccc(F)cc3)CC2)C1=O` (stereo unspecified) as the compound, how does the Activity read?
A: 75%

tested on: not listed separately; experiment: Neurotoxicity in po dosed Sprague-Dawley albino rat at 30 mg/kg, po after 0.25 to 4 hrs by rotarod test; type: toxicity, organism-based; set-up: dose 30 mg/kg, route oral; conditions: in vivo

Q: Which TD50 does the source give for `CC1(c2ccccc2)CC(=O)N(CN2CCN(c3ccc(F)cc3)CC2)C1=O` (stereo unspecified) here?
A: 65.6 mg/kg

tested on: not listed separately; experiment: Neurotoxicity in ip dosed CF-1 albino mouse at 30 to 300 mg/kg, ip after 0.5 to 4 hrs; type: toxicity, organism-based; set-up: route intraperitoneal; conditions: CF-1, mouse, in vivo

Q: For `CC1(c2ccccc2)CC(=O)N(CN2CCN(c3ccc(F)cc3)CC2)C1=O` (stereo unspecified), which TD50 is on record?
A: > 500 mg/kg

biological target: Sodium channel protein type 2 subunit alpha (Homo sapiens) (UniProt Q99250); experiment: Inhibition of NaV1.2 channel (unknown origin) at 10 uM by electrophysiology; conditions: not given
Sequence (Q99250 whole entry, looked up): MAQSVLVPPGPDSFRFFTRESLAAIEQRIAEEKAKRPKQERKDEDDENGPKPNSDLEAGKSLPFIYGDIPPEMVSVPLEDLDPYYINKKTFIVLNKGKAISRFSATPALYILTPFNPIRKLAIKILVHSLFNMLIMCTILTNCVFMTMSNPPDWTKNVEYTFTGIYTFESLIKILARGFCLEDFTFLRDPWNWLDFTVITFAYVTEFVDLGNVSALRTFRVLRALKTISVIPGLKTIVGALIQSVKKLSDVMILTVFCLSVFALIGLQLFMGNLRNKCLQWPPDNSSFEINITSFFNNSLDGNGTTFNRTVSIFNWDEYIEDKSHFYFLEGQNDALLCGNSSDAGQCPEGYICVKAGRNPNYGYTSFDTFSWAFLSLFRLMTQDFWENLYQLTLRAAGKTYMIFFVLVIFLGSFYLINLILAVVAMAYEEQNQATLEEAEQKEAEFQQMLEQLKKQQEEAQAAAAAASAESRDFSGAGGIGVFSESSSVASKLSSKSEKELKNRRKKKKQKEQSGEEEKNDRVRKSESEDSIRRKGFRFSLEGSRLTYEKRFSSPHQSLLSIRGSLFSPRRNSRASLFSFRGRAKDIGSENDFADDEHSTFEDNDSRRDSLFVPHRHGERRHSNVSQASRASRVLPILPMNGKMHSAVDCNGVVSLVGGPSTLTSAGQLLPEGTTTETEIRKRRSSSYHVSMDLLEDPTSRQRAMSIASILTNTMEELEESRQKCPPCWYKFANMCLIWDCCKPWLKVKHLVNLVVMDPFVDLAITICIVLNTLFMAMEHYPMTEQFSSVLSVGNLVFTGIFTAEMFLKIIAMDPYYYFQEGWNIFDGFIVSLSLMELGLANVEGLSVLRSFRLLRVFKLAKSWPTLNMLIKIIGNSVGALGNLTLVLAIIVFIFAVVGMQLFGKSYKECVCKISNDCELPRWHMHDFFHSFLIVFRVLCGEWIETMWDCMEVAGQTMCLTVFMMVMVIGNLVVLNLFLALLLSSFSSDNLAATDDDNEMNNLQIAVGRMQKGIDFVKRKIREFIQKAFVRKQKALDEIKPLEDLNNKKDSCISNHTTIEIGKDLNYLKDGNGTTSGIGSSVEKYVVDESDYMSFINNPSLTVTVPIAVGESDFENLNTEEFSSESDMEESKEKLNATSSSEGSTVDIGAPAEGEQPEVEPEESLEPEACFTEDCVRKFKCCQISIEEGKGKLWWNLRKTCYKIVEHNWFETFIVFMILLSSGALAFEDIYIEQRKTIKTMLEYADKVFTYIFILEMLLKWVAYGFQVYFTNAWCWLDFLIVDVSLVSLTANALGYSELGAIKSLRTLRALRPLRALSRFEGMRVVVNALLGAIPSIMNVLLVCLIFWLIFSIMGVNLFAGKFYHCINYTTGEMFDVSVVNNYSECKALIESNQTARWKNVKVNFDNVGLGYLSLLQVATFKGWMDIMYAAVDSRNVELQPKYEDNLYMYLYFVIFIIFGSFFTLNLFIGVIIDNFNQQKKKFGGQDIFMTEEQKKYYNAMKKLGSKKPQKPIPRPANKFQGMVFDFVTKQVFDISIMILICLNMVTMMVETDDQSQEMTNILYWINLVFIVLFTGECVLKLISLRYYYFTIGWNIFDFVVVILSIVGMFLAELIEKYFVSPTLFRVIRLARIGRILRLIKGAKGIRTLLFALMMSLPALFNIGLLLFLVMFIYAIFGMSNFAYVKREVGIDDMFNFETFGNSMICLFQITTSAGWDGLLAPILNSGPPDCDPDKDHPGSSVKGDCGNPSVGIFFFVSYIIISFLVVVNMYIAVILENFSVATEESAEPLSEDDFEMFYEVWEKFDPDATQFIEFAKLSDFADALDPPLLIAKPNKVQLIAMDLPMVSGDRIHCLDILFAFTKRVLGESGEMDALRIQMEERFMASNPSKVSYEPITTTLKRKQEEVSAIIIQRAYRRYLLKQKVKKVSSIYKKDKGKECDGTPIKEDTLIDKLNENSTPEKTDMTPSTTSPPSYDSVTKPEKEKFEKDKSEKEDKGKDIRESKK

Q: With `CC1(c2ccccc2)CC(=O)N(CN2CCN(c3ccc(F)cc3)CC2)C1=O` (stereo unspecified) as the compound, how does the inhibition read?
A: 26.8%

tested on: Rattus norvegicus; experiment: Anticonvulsant activity in Sprague-Dawley albino rat assessed as protection against maximal electroshock-induced seizures at 30 mg/kg, po after 0.5 hrs; type: functional; conditions: not given

Q: Which Activity does the source give for `CC1(c2ccccc2)CC(=O)N(CN2CCN(c3ccc(F)cc3)CC2)C1=O` (stereo unspecified) here?
A: 25%

tested on: not listed separately; experiment: Neurotoxicity in ip dosed CF-1 albino mouse after 4 hrs by rotarod test; type: toxicity, organism-based; conditions: CF-1, mouse, in vivo

Q: Which TD50 at 4 h does the source give for `CC1(c2ccccc2)CC(=O)N(CN2CCN(c3ccc(F)cc3)CC2)C1=O` (stereo unspecified) here?
A: 300 mg/kg

species: Rattus norvegicus; experiment: Ratio of phenytoin ED50 to compound ED50 for Sprague-Dawley albino rat; type: functional; conditions: not given

Q: Which “Ratio ED50” value does the source give for `CC1(c2ccccc2)CC(=O)N(CN2CCN(c3ccc(F)cc3)CC2)C1=O` (stereo unspecified) here?
A: 3.5

tested on: Mus musculus; experiment: Neurotoxicity in CF-1 albino mouse at 300 mg/kg, ip after 0.5 hrs by rotarod test; type: toxicity, organism-based; set-up: dose 300 mg/kg, route intraperitoneal; conditions: in vivo

Q: For `CC1(c2ccccc2)CC(=O)N(CN2CCN(c3ccc(F)cc3)CC2)C1=O` (stereo unspecified), which Activity is on record?
A: Non-toxic

tested on: Mus musculus; experiment: Anticonvulsant activity in ip dosed CF-1 albino mouse assessed as protection against maximal electroshock-induced seizures after 4 hrs; type: functional; conditions: not given

Q: With `CC1(c2ccccc2)CC(=O)N(CN2CCN(c3ccc(F)cc3)CC2)C1=O` (stereo unspecified) as the compound, how does the MED50 read?
A: 100 mg/kg

tested on: Vibrio harveyi; experiment: Induction of mutagenecity in Vibrio harveyi BB7XM; type: organism-based; conditions: in vivo

Q: With `CC1(c2ccccc2)CC(=O)N(CN2CCN(c3ccc(F)cc3)CC2)C1=O` (stereo unspecified) as the compound, how does the Activity read?
A: Non-toxic

tested on: Rattus norvegicus; experiment: Anticonvulsant activity in Sprague-Dawley albino rat assessed as protection against maximal electroshock-induced seizures at 30 mg/kg, po after 1 hr; type: functional; conditions: not given

Q: For `CC1(c2ccccc2)CC(=O)N(CN2CCN(c3ccc(F)cc3)CC2)C1=O` (stereo unspecified), which Activity is on record?
A: 50%

tested on: Rattus norvegicus; experiment: Anticonvulsant activity in po dosed Sprague-Dawley albino rat assessed as protection against maximal electroshock-induced seizures after 0.25 to 4 hrs; type: functional; conditions: not given

Q: With `CC1(c2ccccc2)CC(=O)N(CN2CCN(c3ccc(F)cc3)CC2)C1=O` (stereo unspecified) as the compound, how does the ED50 read?
A: 7.78 mg/kg

tested on: Vibrio harveyi; experiment: Antimutagenic activity in Vibrio harveyi BB7 assessed as inhibition of 4-nitroquinoline-N-oxide-induced mutation; type: functional; conditions: not given

Q: Which “inhibition (INH)” value does the source give for `CC1(c2ccccc2)CC(=O)N(CN2CCN(c3ccc(F)cc3)CC2)C1=O` (stereo unspecified) here?
A: 8%

tested on: Mus musculus; experiment: Anticonvulsant activity in CF-1 albino mouse assessed as protection against maximal electroshock-induced seizures at 300 mg/kg, ip after 0.5 hrs; type: functional, organism-based; set-up: dose 300 mg/kg; conditions: not given

Q: With `CC1(c2ccccc2)CC(=O)N(CN2CCN(c3ccc(F)cc3)CC2)C1=O` (stereo unspecified) as the compound, how does the Activity read?
A: inactive

tested on: Mus musculus; experiment: Anticonvulsant activity in CF-1 albino mouse assessed as protection against 6 Hz psychomotor seizure at 100 mg/kg, ip after 0.25 hrs; type: functional; conditions: route intraperitoneal

Q: For `CC1(c2ccccc2)CC(=O)N(CN2CCN(c3ccc(F)cc3)CC2)C1=O` (stereo unspecified), which Activity is on record?
A: 50%

biological target: Sodium channel protein type 2 subunit alpha (Homo sapiens) (UniProt Q99250); experiment: Inhibition of NaV1.2 channel (unknown origin) at 1 uM by electrophysiology; conditions: not given

Q: For `CC1(c2ccccc2)CC(=O)N(CN2CCN(c3ccc(F)cc3)CC2)C1=O` (stereo unspecified), which inhibition is on record?
A: 14.9%

tested on: Vibrio harveyi; experiment: Antimutagenic activity in Vibrio harveyi BB7X assessed as inhibition of 4-nitroquinoline-N-oxide-induced mutation; type: functional; conditions: not given

Q: For `CC1(c2ccccc2)CC(=O)N(CN2CCN(c3ccc(F)cc3)CC2)C1=O` (stereo unspecified), which “inhibition (INH)” value is on record?
A: 0%

tested on: Vibrio harveyi; experiment: Induction of mutagenecity in Vibrio harveyi BB7; type: organism-based; conditions: in vivo

Q: With `CC1(c2ccccc2)CC(=O)N(CN2CCN(c3ccc(F)cc3)CC2)C1=O` (stereo unspecified) as the compound, how does the Activity read?
A: Non-toxic

tested on: Rattus norvegicus; experiment: Anticonvulsant activity in Sprague-Dawley albino rat assessed as protection against maximal electroshock-induced seizures at 30 mg/kg, po after 2 hrs; type: functional; conditions: not given

Q: With `CC1(c2ccccc2)CC(=O)N(CN2CCN(c3ccc(F)cc3)CC2)C1=O` (stereo unspecified) as the compound, how does the Activity read?
A: 75%

biological target: Sodium channel protein type 2 subunit alpha (Homo sapiens) (UniProt Q99250); experiment: Inhibition of NaV1.2 channel (unknown origin) at 100 uM by electrophysiology; conditions: not given

Q: With `CC1(c2ccccc2)CC(=O)N(CN2CCN(c3ccc(F)cc3)CC2)C1=O` (stereo unspecified) as the compound, how does the inhibition read?
A: 64%

tested on: Mus musculus; experiment: Anticonvulsant activity in ip dosed CF-1 albino mouse assessed as protection against maximal electroshock-induced seizures after 0.5 to 4 hrs; type: functional; conditions: not given

Q: Which ED50 does the source give for `CC1(c2ccccc2)CC(=O)N(CN2CCN(c3ccc(F)cc3)CC2)C1=O` (stereo unspecified) here?
A: 120 mg/kg

species: Mus musculus; experiment: Protective index, ratio of TD50 for CF-1 albino mouse by rotarod test to ED50 for CF-1 albino mouse; type: functional; conditions: not given

Q: For `CC1(c2ccccc2)CC(=O)N(CN2CCN(c3ccc(F)cc3)CC2)C1=O` (stereo unspecified), which “Ratio TD50/ED50” value is on record?
A: 4.16

tested on: Vibrio harveyi; experiment: Antimutagenic activity in Vibrio harveyi BB7M assessed as inhibition of 4-nitroquinoline-N-oxide-induced mutation; type: functional; conditions: not given

Q: Which “inhibition (INH)” value does the source give for `CC1(c2ccccc2)CC(=O)N(CN2CCN(c3ccc(F)cc3)CC2)C1=O` (stereo unspecified) here?
A: 62%

biological target: Sodium channel protein type 2 subunit alpha (Homo sapiens) (UniProt Q99250); experiment: Inhibition of NaV1.2 channel (unknown origin) at 0.1 uM by electrophysiology; conditions: not given

Q: Which inhibition does the source give for `CC1(c2ccccc2)CC(=O)N(CN2CCN(c3ccc(F)cc3)CC2)C1=O` (stereo unspecified) here?
A: 10.6%
